# Patent US20170027854A1, “Methods And Compositions For Improving The Appearance Of Skin” (ELC Management LLC, priority 2015, published 2017)
# Ends that are not written are not given here.
# System: SIRT6
# Assay: SIRT6 expression in normal human epidermal keratinocytes by immunohistochemistry
# Assay type: cell-based
# Details: 1% and 3% of a 50 ppm peptide solution, FIG. 2
# Experimental: SIRT6 is a member of the conserved family of sirtuin proteins which are associated with metabolism and longevity. SIRT6 is a histone 3, lysine 9 (H3K9) deacetylase and is primarily involved in DNA repair and telomere stability. The peptide of (SEQ ID No. 5) Gly-Ala-Gly-Val-Ser-Ala-Glu-NH2 was tested for Sirt6 stimulating activity as follows.
# Normal Human Epidermal Keratinocytes p3
# • 1. Cells were plated into 4 well chamber slides @ 10,000 cells/chamber and incubated at 37° C., 5% CO2 & 95% humidity for 24 hours. • 2. The peptide of SEQ ID No. 5 was prepared as follows: • 2.1. Dissolved 5 mg peptide in 5 ml medium to make a 1000 ppm stock solution. • 2.2. Diluted the stock solution to 50 ppm by combining 400 μl 1000 ppm stock solution with 7.6 ml medium • 2.3. Prepared a 3% of the 50 ppm solution by combining 1.5 ml 50 ppm stock with 48.5 ml medium • 2.4. Prepared a 1% of the 50 ppm solution by combining 0.5 ml 50 ppm stock with […] medium • 3. Placed treatments (500 μl per chamber) on cells for 48 h, refreshing treatments after 24 h • 4. Aspirated media and replaced with the appropriate treatments. Incubated for 1 & 6 hours. • 5. Performed immunohistochemistry on the cells
# • 6. Prepared Wash Buffer (0.2% Triton X-100):
# 6.1. Add 1 mL of Triton X-100 to 499 ml of 1×PBS • 7. Prepared Block Solution (1%/10 mg/ml BSA)
# 7.1. Added 5 g of BSA into a final volume of 500 ml of 1×PBS • 8. […]
substance,measurement,value
Gly-Ala-Gly-Val-Ser-Ala-Glu-NH2 (GAGVSAE-NH2) [SEQ ID No. 5],SIRT6 expression,dose dependent increase in SIRT6 expression
